According to patent EP3827825A1, “USE OF 3, 4-DIARYLPYRAZOLES AS ANTIBACTERIAL AGENTS” (Wageningen Universiteit, priority 2019, dated 2021):
Converted amounts (≈) assume the structure as drawn. Read-outs that look alike come from different tables or passages of the source.

Legend:
[1] = tested on: S. aureus Newman; test: Minimal inhibitory concentration (MIC), double-dilution in broth, OD600; type: cell-based, Staphylococcus aureus Newman; conditions: unit assumed
Description: (§1) In short, a stock solution of 5 mg/mL of HKIs in DMSO was made. This stock was diluted to 50 µg/mL in broth in a 96 well plate. Dilutions were made (factor 2) directly in the plate with a multi-channel pipet. Bacteria cultured in suspension overnight were then added to the plate (except negative control) and the plate was incubated for 24 hours. After 24 hours the OD600 was measured using a spectrophotometer. A positive control (with bacteria, without HKI) was also measured on each plate.
Bacterial strains used in this study for antibacterial susceptibility testing (Table S2) were propagated using standard microbiological procedures. Minimal inhibitory concentrations (MICs) were determined following a standard double-dilution method (42), 73. […] For M. marinum, MICs were determined in Middlebrook 7H9 broth (Difco) and MICs were determined after 3 days incubation at 30 °C.
(§2) Grow the bacterial colonies to be tested from single colonies on an agar plate in LB broth or suitable bacterial growth medium overnight at 37°C. Prepare a 5 mg/mL stock solution of compounds to be tested in DMSO. One 96-well plate per bacterial strain was prepared. First, put 50 uL of medium to each well. Add 48 µL of medium to all wells in row A. Pipet 2 µL of antimicrobial master stock into the top well (row A). Beware, the antimicrobial concentration will be diluted 2x after adding the bacterial culture. Total volume in each well will be 100 µL. In A11, pipet 2 µL of DMSO. Make a serial dilution from row A to row H, pipetting 50 µL from the previous row into the new one. Mix well by pipetting up and down. Discard the last 50 µL so that there is 50 µl in each well In a clean, new plastic pipetting cup, dilute the overnight bacterial culture 100 times. Add 100 µL of bacterial overnight culture to 9900 µL of medium. Mix the suspension well. Once the serial dilutions are complete for all antimicrobial compounds, add 50 µL of diluted overnight bacterial culture to each well (except column 12). Mix by pipetting or put the plate on the shaker. Per 2 plates, close with parafilm around the edges and place in the incubator overnight. After overnight culturing, measure bacterial growth on the SpectraMax. The lowest concentration where no growth is observed is the MIC. To determine the MIB pipette 5 µL from each well of the 96 well plate where now growth was observed on to an LB agar plate, without antimicrobial. Put the plates in the incubator to grow overnight. The minimal concentration where no growth can be seen on the agar plate is the MBC.

[2] = tested on: S. suis; test: as above; type: cell-based, Streptococcus suis; conditions: unit assumed
Description: as §1, with “each plate. The MICs were not determined in duplo/triplicate in the same experiment, however, the MICs of several HKIs were measured in different experiments and no major differences (max. 1x dilution) were found in the MICs between the experiments.” for “each plate.”
(§3) Bacterial strains used in this study for antibacterial susceptibility testing (Table S2) were propagated using standard microbiological procedures. Minimal inhibitory concentrations (MICs) were determined following a standard double-dilution method (42), 73. MICs were recorded as the lowest concentration of the compound where no visible growth was observed. After plating the dilutions around the MIC or growing them in fresh MH media, minimal bactericidal concentration (MBC) was recorded as the lowest concentration of the compound at which no colonies were formed or no growth was observed, respectively. For M. marinum, MICs were determined in Middlebrook 7H9 broth (Difco) and MICs were determined after 3 days incubation at 30 °C.
as §2

[3] = tested on: P. multocida; test: as above; type: cell-based, Pasteurella multocida; conditions: unit assumed
Description: as §1, with “each plate. The MICs were not determined in duplo/triplicate in the same experiment, however, the MICs of several HKIs were measured in different experiments and no major differences (max. 1x dilution) were found in the MICs between the experiments.” for “each plate.”
as §3, §2

[4] = tested on: M. marinum; test: Minimal inhibitory concentration (MIC), Middlebrook 7H9 broth, 3 days at 30 °C; type: cell-based, Mycobacterium marinum; conditions: unit assumed
Description: as §1, with “each plate. The MICs were not determined in duplo/triplicate in the same experiment, however, the MICs of several HKIs were measured in different experiments and no major differences (max. 1x dilution) were found in the MICs between the experiments.” for “each plate.”
as §3, §2

[5] = tested on: E. faecium Van A; test: Minimal inhibitory concentration (MIC), double-dilution in broth, OD600; type: cell-based, Enterococcus faecium; conditions: unit assumed
Description: as §1, with “each plate. The MICs were not determined in duplo/triplicate in the same experiment, however, the MICs of several HKIs were measured in different experiments and no major differences (max. 1x dilution) were found in the MICs between the experiments.” for “each plate.”
as §3, §2

[6] = tested on: HEK293; test: Cell toxicity, Alamar blue assay, 24 hours exposure; type: cell-based; conditions: Homo sapiens
Description: (§4) Toxicity was primarily determined by measuring cytotoxicity with the Alamar blue assay. In short, cells (HEK293, NRK-52E and Caco-2) were plated in 96-well plates and cultured overnight. HKI compounds were diluted to concentrations ranging from 0.39 to 500 µg/mL in serum-free medium and added to the cells.
(§5) After exposure, cells were incubated for 24 hours. Experiments were mostly performed by single measurement. […] After 24 hours HKIs were removed from the cells and Alamar blue was added, incubated for 45 minutes and fluorescence was measured on a spectrophotometer. Alamar blue measures the conversion of blue, low fluorescent resazurin into high fluorescent pink resorufin. This conversion can only be made in viable mitochondria in viable cells and therefore this dye provides a measure for cytotoxicity.

[7] = tested on: NRK-52E; test: as above; type: cell-based; conditions: for IC50: Rattus norvegicus, read-out: IC50 NRK-52E (50 mg/mL stock)
Description: as §4, §5

[8] = tested on: E. coli JW5503; type: cell-based, Escherichia coli; conditions: unit assumed
Description: as §1, with “each plate. The MICs were not determined in duplo/triplicate in the same experiment, however, the MICs of several HKIs were measured in different experiments and no major differences (max. 1x dilution) were found in the MICs between the experiments.” for “each plate.”
as §3, §2

[9] = HEK293, read-out: IC50 HEK293 (5 mg/mL stock)
[10] = HEK293, read-out: IC50 HEK293 (50 mg/mL stock)

Compound	MIC S. aureus Newman [1] [µg/mL]	MIC S. suis [2] [µg/mL]	MIC P. multocida [3] [µg/mL]	MIC M. marinum [4] [µg/mL]	MIC E. faecium Van A [5] [µg/mL]	IC50 [6, 9] [µg/mL]	IC50 [6, 10] [µg/mL]	IC50 [7] [µg/mL]	MIC E. coli JW5503 [8] [µg/mL]	IC50 NRK-52E (50 mg/mL stock) ([7]; 50 mg/mL stock)
Oc1ccc(-c2onc(C(F)(F)F)c2-c2ccc(Cl)cc2)c(O)c1 [AND-2, 4-[4-(4-chlorophenyl)-3-(trifluoromethyl)isoxazol-5-yl]resorcinol]	3.13 (≈ 8.8 µM)	12.5 (≈ 35.1 µM)	25 (≈ 70.3 µM)	> 50	6.25 (≈ 17.6 µM)	6.97 (≈ 19.6 µM)	36.7 (≈ 103 µM)	~3.88 (≈ 10.9 µM)		
CCOc1ccc(-c2[nH]nc(C(F)(F)F)c2-c2ccc(OC)c(OC)c2)c(O)c1 [May-3, 2-[4-(3,4-dimethoxyphenyl)-5-(trifluoromethyl)-1∼{H}-pyrazol-3-yl]-5-ethoxy-phenol]	12.5 (≈ 30.6 µM)	12.5 (≈ 30.6 µM)	> 50	25 (≈ 61.2 µM)		6.69 (≈ 16.4 µM)		~0.8 (≈ 1.96 µM)		
CCOc1ccc(-c2n[nH]c(C(F)(F)F)c2-c2ccc(OC)cc2)c(O)c1 [May-7, 5-ethoxy-2-[4-(4-methoxyphenyl)-5-(trifluoromethyl)-1∼{H}-pyrazol-3-yl]phenol]	6.25 (≈ 16.5 µM)	6.25 (≈ 16.5 µM)	> 50	50 (≈ 132 µM)		5.68 (≈ 15 µM)	231 (≈ 610 µM)	~31.1 (≈ 82.3 µM)		
COc1ccc(-c2n[nH]c(C(F)(F)F)c2-c2ccccc2OC)c(O)c1 [May-19, 5-methoxy-2-[4-(2-methoxyphenyl)-5-(trifluoromethyl)-1∼{H}-pyrazol-3-yl]phenol]	25 (≈ 68.6 µM)	25 (≈ 68.6 µM)	50 (≈ 137 µM)	50 (≈ 137 µM)	> 50	5.74 (≈ 15.8 µM)		24.1 (≈ 66.1 µM)		
CCOc1ccc(-c2n[nH]c(C(F)(F)F)c2-c2ccccc2)c(O)c1 [May-22, 5-ethoxy-2-[4-phenyl-5-(trifluoromethyl)-1∼{H}-pyrazol-3-yl]phenol]	3.13 (≈ 8.99 µM)	6.25 (≈ 17.9 µM)	50 (≈ 144 µM)	> 50	> 50	5.8 (≈ 16.7 µM)	19.9 (≈ 57.1 µM)	19.2 (≈ 55 µM)		
O=[N+]([O-])c1ccc(COc2ccc(-c3[nH]nc(C(F)(F)F)c3-c3ccc(Cl)cc3)c(O)c2)cc1 [Sep-12, 2-[4-(4-chlorophenyl)-5-(trifluoromethyl)-1∼{H}-pyrazol-3-yl]-5-(4-nitrobenzyl)oxyphenol]	3.13 (≈ 6.39 µM)	12.5 (≈ 25.5 µM)	> 50	50 (≈ 102 µM)	12.5 (≈ 25.5 µM)			14.7 (≈ 30.1 µM)	> 50	
COc1ccc(-c2c(C(F)(F)F)n[nH]c2-c2ccc(OCc3ccc(F)cc3)cc2O)cc1 [Sep-14, 5-(4-fluorobenzyl)oxy-2-[4-(4-methoxyphenyl)-5-(trifluoromethyl)-1∼{H}-pyrazol-3-yl]phenol]	12.5 (≈ 27.3 µM)	25 (≈ 54.5 µM)	> 50	> 50	12.5 (≈ 27.3 µM)			~16.6 (≈ 36.3 µM)	25 (≈ 54.5 µM)	
C=C(C)COc1ccc(-c2[nH]nc(C(F)(F)F)c2-c2ccccc2OC)c(O)c1 [Sep-15, 2-[4-(2-methoxyphenyl)-5-(trifluoromethyl)-1∼{H}-pyrazol-3-yl]-5-(2-methylallyloxy)phenol]	3.13 (≈ 7.74 µM)	12.5 (≈ 30.9 µM)	> 50	50 (≈ 124 µM)	6.25 (≈ 15.5 µM)			~7.62 (≈ 18.8 µM)	6.25 (≈ 15.5 µM)	
COc1ccccc1-c1c(C(F)(F)F)n[nH]c1-c1ccc(OCc2ccc(C)cc2)cc1O [Sep-16, 2-[4-(2-methoxyphenyl)-5-(trifluoromethyl)-1∼{H}-pyrazol-3-yl]-5-(4-methylbenzyl)oxy-phenol]	6.25 (≈ 13.8 µM)	25 (≈ 55 µM)	> 50	> 50	12.5 (≈ 27.5 µM)			~8.72 (≈ 19.2 µM)	50 (≈ 110 µM)	
COc1ccccc1-c1c(C(F)(F)F)n[nH]c1-c1ccc(OCc2ccccc2)cc1O [Sep-17, 5-benzoxy-2-[4-(2-methoxyphenyl)-5-(trifluoromethyl)-1∼{H}-pyrazol-3-yl]phenol]	6.25 (≈ 14.2 µM)	25 (≈ 56.8 µM)	> 50	> 50	12.5 (≈ 28.4 µM)			~8.97 (≈ 20.4 µM)	12.5 (≈ 28.4 µM)	
O=[N+]([O-])c1ccc(COc2ccc(-c3[nH]nc(C(F)(F)F)c3-c3ccccc3)c(O)c2)cc1 [Sep-18, 5-(4-nitrobenzyl)oxy-2-[4-phenyl-5-(trifluoromethyl)-1∼{H}-pyrazol-3-yl]phenol]	6.25 (≈ 13.7 µM)	12.5 (≈ 27.4 µM)	> 50	> 50	12.5 (≈ 27.4 µM)			~14.7 (≈ 32.3 µM)	12.5 (≈ 27.4 µM)	
Oc1ccc(-c2n[nH]c(C(F)(F)F)c2-c2ccc(Br)cc2)c(O)c1 [Sep-20, 4-[4-(4-bromophenyl)-5-(trifluoromethyl)-1∼{H}-pyrazol-3-yl]resorcinol]	6.25 (≈ 15.7 µM)	25 (≈ 62.6 µM)	> 50	> 50	25 (≈ 62.6 µM)				6.25 (≈ 15.7 µM)	7.58
COc1ccc(-c2c(-c3ccc(OCc4ccc(C)cc4)cc3O)n[nH]c2C(F)(F)F)cc1OC [Sep-27, 2-[4-(3,4-dimethoxyphenyl)-5-(trifluoromethyl)-1∼{H}-pyrazol-3-yl]-5-(4-methylbenzyl)oxy-phenol]	3.13 (≈ 6.46 µM)	50 (≈ 103 µM)	> 50	50 (≈ 103 µM)	> 50			~17.6 (≈ 36.3 µM)	> 50	
COc1ccc(-c2c(-c3ccc(OCc4ccccc4)cc3O)n[nH]c2C(F)(F)F)cc1OC [Sep-28, 5-benzoxy-2-[4-(3,4-dimethoxyphenyl)-5-(trifluoromethyl)-1∼{H}-pyrazol-3-yl]phenol]	12.5 (≈ 26.6 µM)	> 50	> 50	> 50	> 50			~17.3 (≈ 36.7 µM)	25 (≈ 53.1 µM)	
COc1ccccc1-c1c(-c2ccc(OCC=C(C)C)cc2O)n[nH]c1C(F)(F)F [Sep-30, 2-[4-(2-methoxyphenyl)-5-(trifluoromethyl)-1∼{H}-pyrazol-3-yl]-5-(3-methylbut-2-enoxy)phenol]	6.25 (≈ 14.9 µM)	25 (≈ 59.7 µM)	> 50	> 50	12.5 (≈ 29.9 µM)			~17.2 (≈ 41.2 µM)	6.25 (≈ 14.9 µM)	
